Measured values taken from patent US20110257251A1, “TELOMERASE INHIBITORS AND METHODS OF USE THEREOF” (PRESIDENTS AND FELLOWS OF HARVARD COLLEGE, priority 2008, published 2011).
Read-outs that look alike come from different tables or passages of the source. Strand notation (5' to 3'): a small letter for the sugar, then the base; units joined by * are phosphorothioate-linked, units joined directly phosphodiester-linked; [ ] holds rarer units or linkages, { } end groups; capitals alone tell only the bases. m = 2'-O-methyl

What was measured:
[1] = tested on: full-length hTR; experiment: Fluorescence polarization binding to full-length hTR; design: species or system human; settings: for Kd: full-length hTR construct, SEQ ID NO: 1 variants, read-out: Kp from FP; for affinity for full-length hTR (in words): FP
Description: To assess and quantify the ability of the RIPtide hits from microarray screening to bind the target RNA in solution, a panel of RIPtides representing variations on the consensus sequences of top hits within each cluster was selected. These RIPtides were synthesized with a 3-carboxyfluorescein (FAM) label attached to the 3′-end, the same as had been attached to the surface of the microarray. Fluorescence polarization (FP) was then used to measure quantitatively the equilibrium dissociation constant (Kd) values of the FAM-labeled RIPtides, using the same folded target RNAs and buffer system as had been employed in the microarray screen.
It is possible, without wishing to be limited by a theory, that RIPtide binding sites present or available in truncated forms of hTR may not be present or available in full-length hTR. Five RIPtides were therefore selected that had been validated for binding PKWT-1 in solution, and their binding affinity to full-length hTR was measured using FP. […] Were the J2b/3 loop involved in tertiary interactions in hTR, RIPtide binding might have been lost, and therefore it was surmised that the loop remains relatively unengaged in such interactions when present in naked hTR.
The remainder of the RIPtide hits from primary microarray screens of PK123 and PK159 in solution were not validated, but instead validation using full-length hTR was analyzed. Representative examples from each of the clusters were selected (FIG. 4D) and the binding affinity of these RIPtides for full-length hTR was quantified (FIG. 6A). In this way, RIPtides from clusters III, IV and V that bind full-length hTR were identified. Taken together, the collection of hTR-validated RIPtides maps out a series of sites on the template/pseudoknot that are especially conducive to targeting by a 2′-O-methyl polyribonucleotide; with each site corresponding to a cluster of sequence-complementary RIPtides (FIG. 6B, shaded according to sequence in FIG. 6A). Specifically, these hyper-targetable regions are the J2b/3 loop and P3 stem (Cluster II), the J2a/2b bulge through part of the P2a stem (Cluster III), the J2a/3 loop (Cluster IV), and the Template region (Cluster V).
FAM (6-carboxyfluorescein)-labeled oligonucleotides were synthesized on a 3′-(6-Fluorescein) CPG support (Glen Research) using a MerMade 12 (BioAutomation) DNA synthesizer, purified with Poly Pak-II (Glen Research) cartridges, and compositionally verified by MALDI-TOF MS. Unlabeled full length hTR was prepared by in vitro transcription in the presence of T7 RNA polymerase under the conditions described earlier for RIPtide screening, but without aminoallyl-UTP addition. After DNase I treatment and ethanol precipitation, hTR was purified using the RNeasy Midi kit (Qiagen). Unlabeled PKWT and PKWT-1 were purchased from Dharmacon, and were PAGE-purified and desalted. FAM-labeled RIPtides (5 nM) were titrated with increasing concentrations of folded RNA (300 pM-3 μM, typically). Solutions containing RIPtide and RNA were incubated at 37° C. for 2 h, after which fluorescence polarization was recorded at room temperature using a SpectraMax M5 (Molecular Devices) plate reader. Polarization (expressed in millipolarization units) was monitored at […] (cutoff 515 nm). […] Dissociation constants were determined using Kaleidagraph 3.5 (Synergy Software). […]

[2] = tested on: mutated full length hTR; experiment: Fluorescence polarization compensatory mutation study with mutated full-length hTR; format: binding, human; settings: mutant RIPtide and mutant hTR
Description: Without wishing to be limited or constrained by theory, the RIPtide binding sites on hTR had been inferred assuming Watson-Crick complementarity between the RIPtide and target. To verify experimentally that the RIPtides were actually recognizing the predicted regions on hTR, tandem point mutations were introduced into the central portion of the RIPtides and compensatory sequence changes into hTR. The binding behavior of the “wild type” and “mutant” RIPtides to wild-type and compensatory mutant hTR targets was analyzed by FP (FIG. 7). Four different hTR transcripts were generated in which two consecutive nucleotides at the central position of each cluster, the expected target site (FIG. 6A, bases indicated in bold), were mutated to their Watson-Crick complementary bases (G→C, C→G and U→A). […] Similarly, binding was abolished or reduced when mutated RIPtides were incubated with wild-type hTR (FIG. 7C). […] Perhaps this lack of restoration in certain cases reflects a local change in the availability or in the folding energy of the single-stranded elements as a result of the mutation. Taken together, this mutational specificity supports the notion, without wishing to be bound by theory, that the RIPtides indeed target telomerase at the corresponding sequence-complementary sites.
For mapping of hTR-RIPtide binding sites, site-directed mutagenesis on the pRc/CMV plasmid (Collins lab, UC Berkeley) was performed using a QuickChange-XL mutagenesis kit (Stratagene) and confirmed by sequencing. Full-length hTR transcripts incorporating two consecutive base mutations (to their Watson-Crick complementary bases) were generated for fluorescence polarization studies.

[3] = tested on: telomerase ribonucleoprotein complex; experiment: TRAP assay in cell extracts (HeLa, DU145, HEK293); format: biochemical, human; settings: for IC50 in TRAP (in words): cell extracts (HeLa, DU145, HEK293)
Description: Having discovered a panel of RIPtides that bind four different regions on the naked RNA component of telomerase, it was next determined whether these molecules were capable of inhibiting the activity of the telomerase ribonucleoprotein complex in an in vitro setting. The Telomeric Repeat Amplification Protocol (TRAP) assay (Kim, N. W. et al., Science 266, 2011-2015 (1994)) was therefore employed. The TRAP assay is a PCR-based protocol that has found widespread use in determining telomerase activity in human cell extracts and also in evaluating the in vitro potency of telomerase inhibitors. Using a version of the TRAP assay (Cy5-TRAP) that utilizes fluorescence detection (Herbert, B.-S. et al., Nat. Protocols 1, 1583-1590 (2006)). IC50 values for several RIPtides were determined using cell extracts from two human tumor cell lines (HeLa and DU145) and an immortalized embryonic cell line (HEK293). Initially, a small library of RIPtides representing several clusters identified in the microarray screen was screened and validated by FP experiments on hTR, using telomerase activity present in HeLa cell extracts. The majority of these were 8-mers, but some 7-mers and 6-mers were also tested; all were fully complementary to the target hTR sequence with Kd's for hTR below 300 nM. Several phosphorothioate variations of the initial library were additionally tested, incorporating phosphorothioate linkages either at the two terminal positions of the RIPtide or at every position.
Inhibition of telomerase activity in vitro was determined using TRAP, a PCR-based assay for telomerase activity in cell extracts (B.-S. Herbert, Nat. Protocols, 1, 1583-1590 (2006)). Unlabeled oligonucleotide sequences found to bind by FP were pre-incubated with cell extracts (HeLa, DU 145, and 293), and activity was measured by TRAP.
RIPtides were synthesized, purified with PolyPak-II C18 reverse phase cartridges, and constitutionally verified by MALDI-TOF MS. Telomerase-positive cells were either purchased from ATCC (DU145 and HEK293) or provided in the Chemicon TRAP kit (HeLa). Cell extracts were prepared from cell pellets by detergent lysis with 1×CHAPS lysis buffer (Chemicon). RIPtides were incubated with cell extract for 1 h at 37° C. prior to the TRAP assays. Assays were performed following a protocol that uses fluorescence as a quantitation system, as previously described by Herbert et al. (Nat. Protocols 1, 1583-1590 (2006)). Briefly, extension of a fluorescent artificial substrate by telomerase was carried out for 30 minutes at 30° C., followed by amplification with 30 PCR cycles ([…] 30 s, 59° C. 30 s, 72° C. 1 min). Telomerase extension products were separated on 10% native PAGE gels, and bands were visualized by fluorescence imaging and quantified using ImageQuant™ (GE Healthcare). Concentrations of RIPtides ranged from 0.6 nM to 60 μM, and for the initial screening, experiments were performed in duplicate using HeLa cell extracts. For active RIPtides, experiments were repeated using DU145 (prostate cancer) and HEK293 cell extracts. Several controls were included in the design of the experiments: a positive control (untreated cell lysate), negative controls (buffer only, heat inactivated and RNase treated cell extracts), and PCR amplification control (60 μM of RIPtide added after telomerase elongation and before PCR step). For cell-based TRAP assays, DU145 cells were transfected with 0.2% Lipofectamine™ 2000 (Invitrogen) and 165 nM RIPtide for a period of 24 h. Cells were harvested, counted, lysed with 1×CHAPS lysis buffer and normalized by total protein concentration as determined by the Bradford assay. Assays were performed in triplicate as described above.
The inhibitory potential of the RIPtides was initially assessed in HeLa cell extracts, in duplicate experiments, using a 600 pM-60 μM concentration range. Experiments with selected RIPtides were repeated for a concentration range of 0.6 pM-60 μM. […]

[4] = tested on: telomerase activity in DU145 cells; experiment: Cell-based TRAP assay in transfected DU145 cells; design: species or system human; settings: 165 nM RIPtide, 24 h, Lipofectamine 2000, then TRAP
Experimental: Having established that the modified RIPtides retain activity in vitro, several of these were tested in cell-based assays. DU145 prostate cancer cells were treated with 165 nM RIPtide for 24 h. The cells were subsequently lysed and telomerase activity was assessed by the TRAP assay (FIG. 8D). As a positive control, a previously reported 13-mer 2′-O-methyl oligonucleotide targeting the template region of hTR was employed (Pitts, A. E., Corey, D. R., Proc. Natl. Acad. Sci. USA 95, 11549-111554 (1998)). Lipofectamine™ was used to ensure optimal delivery, and it remains to be established whether cationic lipid delivery is necessary for 10-mers. In particular, there is evidence that relatively short oligonucleotides containing phosphorothioate linkages targeting telomerase show optimal cellular uptake properties (Chen, Z., et al., J. Med. Chem. 45, 5423-5425 (2002)).
RIPtides were synthesized, purified with PolyPak-II C18 reverse phase cartridges, and constitutionally verified by MALDI-TOF MS. Telomerase-positive cells were either purchased from ATCC (DU145 and HEK293) or provided in the Chemicon TRAP kit (HeLa). Cell extracts were prepared from cell pellets by detergent lysis with 1×CHAPS lysis buffer (Chemicon). RIPtides were incubated with cell extract for 1 h at 37° C. prior to the TRAP assays. Assays were performed following a protocol that uses fluorescence as a quantitation system, as previously described by Herbert et al. (Nat. Protocols 1, 1583-1590 (2006)). Briefly, extension of a fluorescent artificial substrate by telomerase was carried out for 30 minutes at 30° C., followed by amplification with 30 PCR cycles ([…] 30 s, 59° C. 30 s, 72° C. 1 min). Telomerase extension products were separated on 10% native PAGE gels, and bands were visualized by fluorescence imaging and quantified using ImageQuant™ (GE Healthcare). […] Cells were harvested, counted, lysed with 1×CHAPS lysis buffer and normalized by total protein concentration as determined by the Bradford assay. […]

[5] = cell extracts (HeLa, DU 145, and 293), SEQ ID NO: 1 variants, read-out: IC50 from TRAP

Substance “G*CCUCCA*G (mG*mCmCmUmCmCmA*mG; further chemistry not given here)” has a Kd [1] of 37.3 ± 15.2 nM.

In the case of “AGUUAGG (all 2'-O-methyl, backbone not given here) [V-3]”, the “restoration of binding with compensatory mutations in both RIPtide and hTR” value (from here on “restoration of binding”) [2] is reported as “restoration was observed”.

“5′-GGUGGAAGGC-3′ (2'-O-methyl sugars, as printed in the source, key not given here) [IV-3]” was tested, and the “IC50 in TRAP (in words)” value [3] was “low nanomolar range” and the “telomerase inhibition in cultured cells” value [4] was “no significant telomerase inhibition”.

“GGUGGAAGGC (as printed in the source, key not given here) [IV-4]” was tested, and the “IC50 in TRAP (in words)” value [3] was “low nanomolar range”.

For “GUCAGCGA (all 2'-O-methyl, backbone not given here) [II-2]”, the “affinity for full-length hTR (in words)” value [1] was “improvement in affinity” and the “restoration of binding” value [2] was “restoration was observed”.

In the case of “5′-GCCUCCAG-3′ (chemistry not given here) [SEQ ID NO: 1]”, the “telomerase inhibition in TRAP assays (in words)” value ([3]; cell extracts) is reported as “showing inhibition of activity”, the “IC50 in TRAP (in words)” value [3] is reported as “micromolar range” and the “affinity for full-length hTR (in words)” value [1] is reported as “confirmed”.

For “GGUGCCAGGC (all 2'-O-methyl, backbone not given here; further chemistry not fully specified) [IV-3 mismatch, reference compound]”, the “telomerase inhibition in cultured cells” value [4] was “abolished inhibition”.

For “G*C*C*U*C*C*A*G (mG*mC*mC*mU*mC*mC*mA*mG) [G*C*C*U*C*C*A*G LNA]”, the IC50 [3, 5] was about 6000 nM.

Substance GCCUCCA*G (mGmCmCmUmCmCmA*mG) has an IC50 [3, 5] of about 16000 nM and a Kd [1] of 8.9 ± 5.6 nM.

For “GGUGGAAGGC (as printed in the source, key not given here)”, the IC50 ([3]; cell extracts, in vitro, read-out: IC50, telomerase inhibition in TRAP) was about 1 nM.

In the case of “GGUGGAAGGC (as printed in the source, key not given here) [IV-5]”, the “telomerase inhibition in cultured cells” value [4] is reported as “marked inhibition”.

“CAGCGAGA (all 2'-O-methyl, backbone not given here) [II-1]” was tested, and the “restoration of binding” value [2] was “Restoration was not observed”.

In the case of G*CCUCCAG (mG*mCmCmUmCmCmAmG), the IC50 [3, 5] is reported as about 9000 nM and the Kd [1] is reported as 8.8 ± 2.5 nM.
